In patent publication US20230365589A1, “NOVEL AMINE DERIVATIVES” (Sumitomo Pharma Co., Ltd., priority 2020, published 2023):
Where two headings read alike, the source gives them in different places.

Tests used:
Format in all cases: biochemical
[1] = molecular target: T1, DYRK3 (Homo sapiens, UniProt O43781); assay: Inhibition test on activity of DYRK family, mobility shift assay (MSA): DYRK3
T1 construct: purchased Carna Biosciences, Inc. 04-133
T1 sequence (O43781 1-568 isoform O43781-2): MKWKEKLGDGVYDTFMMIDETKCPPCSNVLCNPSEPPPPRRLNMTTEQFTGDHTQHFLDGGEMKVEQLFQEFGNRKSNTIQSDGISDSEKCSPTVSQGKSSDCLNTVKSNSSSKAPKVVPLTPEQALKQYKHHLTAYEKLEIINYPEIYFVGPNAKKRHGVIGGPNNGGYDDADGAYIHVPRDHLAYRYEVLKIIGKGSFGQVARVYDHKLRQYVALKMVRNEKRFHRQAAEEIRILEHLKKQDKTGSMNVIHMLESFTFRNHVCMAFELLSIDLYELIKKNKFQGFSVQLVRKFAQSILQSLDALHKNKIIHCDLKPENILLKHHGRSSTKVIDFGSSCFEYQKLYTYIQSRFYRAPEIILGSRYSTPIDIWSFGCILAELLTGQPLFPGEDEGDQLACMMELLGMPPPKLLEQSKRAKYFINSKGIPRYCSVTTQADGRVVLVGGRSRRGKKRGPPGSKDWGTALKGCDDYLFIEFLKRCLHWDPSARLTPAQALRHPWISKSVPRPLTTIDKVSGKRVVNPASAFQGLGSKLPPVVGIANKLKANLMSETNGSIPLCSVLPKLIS
Experimental: (§1) [Inhibition Test on Activity of DYRK Family (DYRK1A, DYRK1B, DYRK2, and DYRK3)]
(§2) The kinase activity was measured by mobility shift assay (MSA) method using QuickScout Screening Assist™ MSA (commercially available kit manufactured by Carna Biosciences, Inc.). The substrate of the kinase reaction used was an FITC-labeled DYRKtide peptide included in the kit. An assay buffer [20 mM HEPES, 0.01% Triton X-100™, 2 mM dithiothreitol, pH 7.5]was used to create a substrate mixture solution with a substrate (4 μM), MgCl2(20 mM), and ATP (DYRK1A: 100 μM; DYRK1B: 200 μM; DYRK2: 40 μM; and DYRK3: 20 μM). In addition, kinases (DYRK1A: manufactured by Carna Biosciences, Inc., Cat. No. 04-130; DYRK1B: manufactured by Carna Biosciences, Inc., Cat. No. 04-131; DYRK2; manufactured by Carna Biosciences, Inc., Cat. No. 04-132; and DYRK3; manufactured by Carna Biosciences, Inc., Cat. No. 04-133) were diluted with the assay buffer to prepare enzyme solutions (DYRK1A: 0.2 ng/μL; DYRK1B: 0.08 ng/μL; DYRK2: 0.04 ng/μL; and DYRK3: 0.25 ng/μL). The 10 mM solution of the test compound in DMSO was further diluted with DMSO to 10 levels of the concentration (0.00003 mM, 0.0001 mM, 0.0003 mM, 0.001 mM, 0.003 mM, 0.01 mM, 0.03 mM, 0.1 mM, 0.3 mM, and 1 mM), each of which was subjected to 25-fold dilution with the assay buffer to obtain a drug solution (4% DMSO solution). 5 μL of the drug solution or a control solution (4% DMSO-assay buffer), 5 μL of the substrate mixture solution, and 10 μL of the enzyme solution were mixed in the wells of a polypropylene 384-well plate and allowed to react at room temperature for 1 hour, and then the reaction was quenched by adding 60 μL of the termination buffer included in the kit. Subsequently, the quantities of the substrates (S) and the phosphorylated substrate (P) in the reaction solution were measured using LabChip EZ Reader II system (manufactured by Caliper Life Sciences) according to the protocol of the assay kit.
(§3) The heights of the peaks of the “substrate” and the “phosphorylated substrate” were expressed as S and P, respectively, and a blank containing the assay buffer instead of the enzyme solution was also measured.
(§4) The inhibition rate (%) of the test compound was calculated according to the following equation:
(§5) Inhibition rate (%)=(1−(C−A)/(B−A))×100 • wherein, A, B, and C represent P/(P+S) of the blank well, P/(P+S) of the control solution well, and P/(P+S) of the compound-containing well, respectively.
(§6) The IC50 value was calculated via a regression analysis of the inhibition rate and the test compound concentration (logarithmic value).
(§7) The inhibiting activities of representative compounds of the present invention are shown against DYRK1A, DYRK1B, DYRK2, and DYRK3 in Tables.

[2] = molecular target: T2, DYRK2 (Homo sapiens, UniProt Q92630); assay: Inhibition test on activity of DYRK family, mobility shift assay (MSA): DYRK2
T2 construct: purchased Carna Biosciences, Inc. 04-132
T2 sequence (Q92630 74-601 limits assumed): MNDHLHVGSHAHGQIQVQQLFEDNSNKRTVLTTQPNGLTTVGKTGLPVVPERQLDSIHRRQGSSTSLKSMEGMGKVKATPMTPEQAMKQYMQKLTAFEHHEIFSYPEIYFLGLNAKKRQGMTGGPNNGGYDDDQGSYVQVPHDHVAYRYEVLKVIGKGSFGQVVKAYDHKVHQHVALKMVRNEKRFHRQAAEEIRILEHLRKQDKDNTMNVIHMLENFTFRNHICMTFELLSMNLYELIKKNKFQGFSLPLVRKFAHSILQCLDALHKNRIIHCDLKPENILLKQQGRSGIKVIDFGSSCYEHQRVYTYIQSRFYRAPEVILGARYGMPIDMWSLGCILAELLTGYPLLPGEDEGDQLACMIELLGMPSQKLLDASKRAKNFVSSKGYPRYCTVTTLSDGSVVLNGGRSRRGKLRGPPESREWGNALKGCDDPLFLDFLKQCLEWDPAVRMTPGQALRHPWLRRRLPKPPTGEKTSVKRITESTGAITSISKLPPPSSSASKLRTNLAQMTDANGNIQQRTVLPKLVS
Experimental: as §1, §2, §3, §4, §5, §6, §7

[3] = molecular target: T3, DYRK1A (Homo sapiens, UniProt Q13627); assay: Inhibition test on activity of DYRK family, mobility shift assay (MSA): DYRK1A
T3 construct: purchased Carna Biosciences, Inc. 04-130
Experimental: as §1, §2, §3, §4, §5, §6

[4] = read-out: Inhibitory activity DYRK 3
[5] = read-out: Inhibitory activity DYRK 2
[6] = read-out: Inhibitory activity DYRK 1A
[7] = MSA, FITC-labeled DYRKtide peptide, ATP 20 μM, read-out: Inhibitory activity DYRK 3 (IC50 class)
[8] = MSA, FITC-labeled DYRKtide peptide, ATP 40 μM, read-out: Inhibitory activity DYRK 2 (IC50 class)
[9] = MSA, FITC-labeled DYRKtide peptide, ATP 100 μM, read-out: Inhibitory activity DYRK 1A (IC50 class)

| SMILES | IC50 [1, 4] [nM] | IC50 [2, 5] [nM] | IC50 [3, 6] [nM] | IC50 [1, 7] [nM] | IC50 [2, 8] [nM] | IC50 [3, 9] [nM] |
| --- | --- | --- | --- | --- | --- | --- |
| N#CCN1CC[C@H]2NC(=O)N(c3nc4c5c(ccc4s3)OCC5)[C@H]2C1 (single isomer, unassigned) [Example 111] | ≥ 1000 | ≥ 1000 | 100 to 1000 |  |  |  |
| N#CCN1CC[C@@H]2NC(=O)N(c3nc4c5c(ccc4s3)OCC5)[C@@H]2C1 (single isomer, unassigned) [Example 112] | 100 to 1000 | ≥ 1000 | < 10 |  |  |  |
| C#CCN1CC[C@@H]2NC(=O)N(c3nc4c5c(ccc4s3)OCC5)[C@@H]2C1 (single isomer, unassigned) [Example 114] | 100 to 1000 | 100 to 1000 | < 10 |  |  |  |
| O=C1NC2CNCCC2N1c1nc2c3c(ccc2s1)OCC3 (stereo not drawn) [Example 2] |  |  |  | 10 to 100 | 100 to 1000 | 10 to 100 |
| O=C1N[C@H]2CCCNC[C@H]2N1c1nc2c3c(ccc2s1)OCC3 [Example 4] |  |  |  | 100 to 1000 | ≥ 1000 | 100 to 1000 |
| O=C1N[C@H]2CNCCC[C@H]2N1c1nc2c3c(ccc2s1)OCC3 [Example 5] |  |  |  | 100 to 1000 | 100 to 1000 | 10 to 100 |
| COCCN1CCC2C(C1)NC(=O)N2c1nc2c3c(ccc2s1)OCC3 (stereo not drawn) [Example 10] |  |  |  | ≥ 1000 | ≥ 1000 | 100 to 1000 |
| CCN1CCC2C(C1)NC(=O)N2c1nc2c3c(ccc2s1)OCC3 (stereo not drawn) [Example 12] |  |  |  | 100 to 1000 | 100 to 1000 | 10 to 100 |
| O=C1NC2CCN(CCO)CC2N1c1nc2c3c(ccc2s1)OCC3 (stereo not drawn) [Example 13] |  |  |  | ≥ 1000 | ≥ 1000 | 10 to 100 |
| CC(C)N1CC2NC(=O)N(c3nc4c5c(ccc4s3)OCC5)C2C1 (stereo not drawn) [Example 16] |  |  |  | ≥ 1000 | ≥ 1000 | 100 to 1000 |
| CN1CCC[C@@H]2[C@H](C1)NC(=O)N2c1nc2c3c(ccc2s1)OCC3 [Example 18] |  |  |  | 100 to 1000 | 100 to 1000 | 10 to 100 |
| O=C1N[C@H]2COCC[C@H]2N1c1nc2c3c(ccc2s1)OCO3 [Example 21, (3aR,7aR)-1-(2H-[1,3]dioxolo[4,5-e][1,3]benzothiazol-7-yl)hexahydropyrano[3,4-d]imidazol-2(3H)-one] |  |  |  | 100 to 1000 | 100 to 1000 | < 10 |
| C[C@H]1NC(=O)N(c2nc3c4c(ccc3s2)OCC4)[C@@H]1CN(C)C [Example 22, (4R,5R)-1-(7,8-dihydrofuro[3,2-e][1,3]benzothiazol-2-yl)-5-[(dimethylamino)methyl]-4-methylimidazolidin-2-one] |  |  |  | ≥ 1000 | ≥ 1000 | 100 to 1000 |
| C[C@@H]1NC(=O)N(c2nc3c4c(ccc3s2)OCC4)[C@@H]1CN(C)C [Example 25] |  |  |  | ≥ 1000 | ≥ 1000 | 10 to 100 |
| O=C1NC2CCNCC2N1c1nc2c3c(ccc2s1)OCCO3 (stereo not drawn) [Example 29] |  |  |  | ≥ 1000 | ≥ 1000 | 10 to 100 |
| O=C1NC2CCNCC2N1c1nc2c3c(ccc2s1)OCO3 (stereo not drawn) [Example 30] |  |  |  | ≥ 1000 | ≥ 1000 | 10 to 100 |

| SMILES | IC50 [1, 4] [nM] | IC50 [2, 5] [nM] | IC50 [3, 6] [nM] | IC50 [1, 7] [nM] | IC50 [2, 8] [nM] | IC50 [3, 9] [nM] |
| --- | --- | --- | --- | --- | --- | --- |
| O=C1NC2CCN(C3CC3)CC2N1c1nc2c3c(ccc2s1)OCO3 (stereo not drawn) [Example 32] |  |  |  | ≥ 1000 | ≥ 1000 | < 10 |
| COC[C@@H]1[C@H](C)NC(=O)N1c1nc2c3c(ccc2s1)OCC3 [Example 44, (4S,5S)-1-(7,8-dihydrofuro[3,2-e][1,3]benzothiazol-2-yl)-5-(methoxymethyl)-4-methylimidazolidin-2-one] |  |  |  | 100 to 1000 | 100 to 1000 | < 10 |
| O=C1N[C@H]2CCNCC[C@H]2N1c1nc2c3c(ccc2s1)OCC3 [Example 45] |  |  |  | 10 to 100 | 100 to 1000 | 10 to 100 |
| O=C1N[C@@H]2[C@@H](CCNC23CC3)N1c1nc2c3c(ccc2s1)OCC3 [Example 46] |  |  |  | 100 to 1000 | 100 to 1000 | 10 to 100 |
| O=C1N[C@H]2CCNC3(CC3)[C@H]2N1c1nc2c3c(ccc2s1)OCC3 [Example 47] |  |  |  | 100 to 1000 | ≥ 1000 | 100 to 1000 |
| O=C1N[C@@H]2CCNC3(CC3)[C@H]2N1c1nc2c3c(ccc2s1)OCC3 [Example 48] |  |  |  | 10 to 100 | 100 to 1000 | 10 to 100 |
| O=C1N[C@H]2CNC[C@H](F)[C@H]2N1c1nc2c3c(ccc2s1)OCC3 [Example 49] |  |  |  | 100 to 1000 | 100 to 1000 | 10 to 100 |
| O=C1N[C@H]2[C@H](F)CNC[C@H]2N1c1nc2c3c(ccc2s1)OCC3 [Example 50] |  |  |  | 100 to 1000 | ≥ 1000 | 100 to 1000 |
| O=C1N[C@H]2CNCC[C@H]2N1c1nc2c3c(ccc2s1)OCCO3 [Example 51] |  |  |  | 100 to 1000 | 100 to 1000 | 10 to 100 |
| O=C1N[C@H]2CCN(C3CNC3)C[C@H]2N1c1nc2c3c(ccc2s1)OCC3 [Example 53] |  |  |  | 100 to 1000 | ≥ 1000 | 100 to 1000 |
| O=C1N[C@H]2CNCCC[C@H]2N1c1nc2c3c(ccc2s1)OCO3 [Example 54] |  |  |  | 100 to 1000 | 100 to 1000 | 10 to 100 |
| O=C1N[C@H]2CCCNC[C@H]2N1c1nc2c3c(ccc2s1)OCO3 [Example 55] |  |  |  | 100 to 1000 | ≥ 1000 | 100 to 1000 |
| O=C1N[C@H]2CNC3(CC3)C[C@H]2N1c1nc2c3c(ccc2s1)OCC3 [Example 56] |  |  |  | 100 to 1000 | ≥ 1000 | 100 to 1000 |
| O=C1N[C@H]2CC3(CC3)NC[C@H]2N1c1nc2c3c(ccc2s1)OCC3 [Example 57] |  |  |  | 100 to 1000 | ≥ 1000 | 100 to 1000 |
| O=C1N[C@H]2COC[C@H]2N1c1nc2c3c(ccc2s1)OCC3 [Example 65, (3aR,6aS)-1-(7,8-dihydrofuro[3,2-e][1,3]benzothiazol-2-yl)tetrahydro-1H-furo[3,4-d]imidazol-2(3H)-one] |  |  |  | 10 to 100 | 10 to 100 | < 10 |
| O=C1N[C@@H]2COC[C@@H]2N1c1nc2c3c(ccc2s1)OCC3 [Example 66] |  |  |  | ≥ 1000 | ≥ 1000 | 100 to 1000 |
